Literature values, collected in patent US20210353513A1, “STABILIZED OIL-IN-WATER EMULSION” (priority 2018, published 2021).

Density (g/cm^3) at 20° C.: 1.05 g/mL
SMILES: CCCCCCCCCC(=O)OCC(COC(=O)CCCCCCCCC)OC(=O)CCCCCCCCC [Tricaprin (s, β), Tricaprin]
